Results published in patent US10201523B2, “Use of wilforlide A for overcoming chemotherapy resistance” (WESTERN UNIVERSITY OF HEALTH SCIENCES, priority 2013, dated 2019).
pIC50: −log10 of the molar value. Several values for one entry are separate records, joined by “and”; a condition that tells them apart may be missing. Identical values can stand only once. Like-named read-outs stand apart in the source and are kept apart here.

Experiments:
K562 = test: SRB cell viability assay, daunorubicin IC50; format: cell-based; details: Homo sapiens, 72 h, read-out: Drug IC50 no pre-Tx
K562/Dox = test: SRB cell viability assay, daunorubicin with/without wilforlide A pretreatment; format: cell-based; details: for viability at 0.001 µM / viability at 0.1 µM / viability at 0.333 µM / viability at 1 µM / viability at 3.33 µM / viability at 10 µM / viability at 33.3 µM / viability at 100 µM / pIC50: Homo sapiens; for A at 565 nm: background = 0.043
Text: Wilforlide A sensitizes the daunorubicin-resistant myelogenous leukemia line K562/Dox, to daunorubicin. […] FIG. 5 summarizes the data of Tables 20 and 21 in a graphical format.

[1] = K562/Dox, no wilforlide A pre-Tx, daunorubicin 0.001 μM 72 h
[2] = K562/Dox, no wilforlide A pre-Tx, daunorubicin 0.333 μM 72 h
[3] = K562/Dox, no wilforlide A pre-Tx, daunorubicin 1 μM 72 h
[4] = K562/Dox, no wilforlide A pre-Tx, daunorubicin 3.33 μM 72 h
[5] = K562/Dox, no wilforlide A pre-Tx, daunorubicin 10 μM 72 h
[6] = K562/Dox, no wilforlide A pre-Tx, daunorubicin 33.3 μM 72 h
[7] = K562/Dox, no wilforlide A pre-Tx, daunorubicin 100 μM 72 h
[8] = K562/Dox, wilforlide A 2.5 μg/ml pre-Tx, daunorubicin 0.001 μM 72 h
[9] = K562/Dox, wilforlide A 2.5 μg/ml pre-Tx, daunorubicin 0.333 μM 72 h
[10] = K562/Dox, wilforlide A 2.5 μg/ml pre-Tx, daunorubicin 1 μM 72 h
[11] = K562/Dox, wilforlide A 2.5 μg/ml pre-Tx, daunorubicin 3.33 μM 72 h
[12] = K562/Dox, wilforlide A 2.5 μg/ml pre-Tx, daunorubicin 10 μM 72 h
[13] = K562/Dox, wilforlide A 2.5 μg/ml pre-Tx, daunorubicin 33.3 μM 72 h
[14] = K562/Dox, wilforlide A 2.5 μg/ml pre-Tx, daunorubicin 100 μM 72 h

COc1cccc2c1C(=O)c1c(O)c3c(c(O)c1C2=O)C[C@@](O)(C(C)=O)C[C@@H]3O[C@H]1C[C@H](N)[C@H](O)[C@H](C)O1 [daunorubicin]
pIC50 (K562): 5.98 | viability at 0.001 µM (K562/Dox; K562, 72 h, K562/Dox, no wilforlide A pre-Tx, daunorubicin 0.001 μM 72 h): 100% | viability at 0.1 µM (K562/Dox; K562, 72 h, K562/Dox, no wilforlide A pre-Tx, daunorubicin 0.1 μM 72 h): 58.1% | viability at 0.333 µM (K562/Dox; K562, 72 h, K562/Dox, no wilforlide A pre-Tx, daunorubicin 0.333 μM 72 h): 102% | viability at 1 µM (K562/Dox; K562, 72 h, K562/Dox, no wilforlide A pre-Tx, daunorubicin 1 μM 72 h): 99.6% | viability at 3.33 µM (K562/Dox; K562, 72 h, K562/Dox, no wilforlide A pre-Tx, daunorubicin 3.33 μM 72 h): 95.9% | viability at 10 µM (K562/Dox; K562, 72 h, K562/Dox, no wilforlide A pre-Tx, daunorubicin 10 μM 72 h): 92.3% | viability at 33.3 µM (K562/Dox; K562, 72 h, K562/Dox, no wilforlide A pre-Tx, daunorubicin 33.3 μM 72 h): 53.8% | viability at 100 µM (K562/Dox; K562, 72 h, K562/Dox, no wilforlide A pre-Tx, daunorubicin 100 μM 72 h): 22.4% | viability at 0.001 µM (K562/Dox; K562, 72 h, K562/Dox, wilforlide A 2.5 μg/ml pre-Tx, daunorubicin 0.001 μM 72 h): 100% | viability at 0.1 µM (K562/Dox; K562, 72 h, K562/Dox, wilforlide A 2.5 μg/ml pre-Tx, daunorubicin 0.1 μM 72 h): 54.1% | viability at 0.333 µM (K562/Dox; K562, 72 h, K562/Dox, wilforlide A 2.5 μg/ml pre-Tx, daunorubicin 0.333 μM 72 h): 104% | viability at 1 µM (K562/Dox; K562, 72 h, K562/Dox, wilforlide A 2.5 μg/ml pre-Tx, daunorubicin 1 μM 72 h): 99% | viability at 3.33 µM (K562/Dox; K562, 72 h, K562/Dox, wilforlide A 2.5 μg/ml pre-Tx, daunorubicin 3.33 μM 72 h): 95.4% | viability at 10 µM (K562/Dox; K562, 72 h, K562/Dox, wilforlide A 2.5 μg/ml pre-Tx, daunorubicin 10 μM 72 h): 78.6% | viability at 33.3 µM (K562/Dox; K562, 72 h, K562/Dox, wilforlide A 2.5 μg/ml pre-Tx, daunorubicin 33.3 μM 72 h): 33.7% | viability at 100 µM (K562/Dox; K562, 72 h, K562/Dox, wilforlide A 2.5 μg/ml pre-Tx, daunorubicin 100 μM 72 h): 29.6% | pIC50 (K562/Dox; K562, 72 h, read-out: Drug IC50 no pre-Tx): 4.51 | pIC50 (K562/Dox; K562, read-out: Drug IC50 after wilforlide A pre-Tx): 4.87 | mean A (K562/Dox; [1]): 2.893 | A at 565 nm (K562/Dox; [1]): 2.848 and 2.923 and 2.909 | mean A (K562/Dox; K562/Dox, no wilforlide A pre-Tx, daunorubicin 0.1 μM 72 h): 1.682 | mean A (K562/Dox; [2]): 2.951 | A at 565 nm (K562/Dox; [2]): 2.943 and 2.956 and 2.955 | mean A (K562/Dox; [3]): 2.880 | A at 565 nm (K562/Dox; [3]): 2.892 and 2.878 and 2.872 | mean A (K562/Dox; [4]): 2.775 | A at 565 nm (K562/Dox; [4]): 2.805 and 2.780 and 2.741 | mean A (K562/Dox; [5]): 2.670 | A at 565 nm (K562/Dox; [5]): 2.678 and 2.720 and 2.613 | mean A (K562/Dox; [6]): 1.556 | A at 565 nm (K562/Dox; [6]): 1.625 and 1.639 and 1.406 | mean A (K562/Dox; [7]): 0.647 | A at 565 nm (K562/Dox; [7]): 0.757 and 0.657 and 0.528 | mean A (K562/Dox; [8]): 2.815 | A at 565 nm (K562/Dox; [8]): 2.797 and 2.838 and 2.810 | mean A (K562/Dox; K562/Dox, wilforlide A 2.5 μg/ml pre-Tx, daunorubicin 0.1 μM 72 h): 1.522 | mean A (K562/Dox; [9]): 2.938 | A at 565 nm (K562/Dox; [9]): 2.838 and 2.951 and 3.025 | mean A (K562/Dox; [10]): 2.786 | A at 565 nm (K562/Dox; [10]): 2.777 and 2.784 and 2.799 | mean A (K562/Dox; [11]): 2.684 | A at 565 nm (K562/Dox; [11]): 2.657 and 2.681 and 2.715 | mean A (K562/Dox; [12]): 2.213 | A at 565 nm (K562/Dox; [12]): 2.200 and 2.392 and 2.049 | mean A (K562/Dox; [13]): 0.947 | A at 565 nm (K562/Dox; [13]): 1.016 and 0.901 and 0.926 | mean A (K562/Dox; [14]): 0.832 | A at 565 nm (K562/Dox; [14]): 0.843 and 0.815 and 0.840 | CE (K562/Dox; chemosensitization effect, K562/Dox, wilforlide A 2.5 μg/ml pre-Tx): 2.27
